How the values were obtained:
[1] = test system: unselected cord blood mononuclear cell population; test: Lymphocyte subsets (FACS) in unselected cord blood mononuclear cell cultures; assay type: cell-based, human; details: three weeks
Method: 1. Total mononuclear cell fraction was cultured in culture bags (American Fluoroseal Co. Gaithersburg, Md., USA), T-Flasks or 24 well plates at a concentration of 0.5−2×10^6 cells/ml in MEMα comprising 10% FCS or CellGro SCGM (Cell Genix) comprising 5-10% Human Serum/LiforCell® FBS Replacement (Lifeblood Products) containing the following human recombinant cytokines:, interleukin-2 (IL-2) (5-50 ng/ml), interleukin-15 (IL-15), interleukin7 (IL7), interleukin 21 (IL21), FLT-3 or SCF or FLT3 and SCF (Perpo Tech, Inc., Rocky Hill, N.J., USA), with or without OKT-3 (10-50 ng/ml), with or without nicotinamide (0.5-10 mM), and incubated at 37° C. in a humidified atmosphere of 5% CO2 in air. When OKT-3 was used in the culture the cultures were centrifuged after 5-7 days and the cells were resuspended with the same medium excluding the OKT-3. All cultures are topped weekly or twice a week with the same volume of fresh medium containing the growth factors with or without nicotinamide. For counting, the cells were stained with trypan blue. At various time points, samples were taken to assay the relative fractions of NK cells, CD56+CD3−, CD56+CD3+, CD34+CD56+, CD56+CD16+ and/or CD56+ NKG2A cells. Cell morphology was determined on cytospin (Shandon, Pittsburgh, Pa., USA) prepared smears stained with May-Grunwald/Giemsa solutions.
(§1) The cells were washed with a PBS solution containing 1% BSA, and stained (at 4° C. for 30 min) with fluorescein isothiocyanate (FITC)- or phycoerythrin (PE)-conjugated antibodies or allophycocyanin (APC). The cells were then washed in the above buffer and analyzed using a FACScalibur® flow cytometer (Becton Dickinson, San Jose, Calif., USA). The cells were passed at a rate of up to 1000 cells/second, using a 488 nm or 661 nm argon laser beam as the light source for excitation. Emission of 10^4 cells was measured using logarithmic amplification, and analyzed using the CellQuest software (Becton Dickinson). Cells stained with FITC, PE and APC-conjugated isotype control antibodies were used to determine background fluorescence. […]

[2] = test system: cord-blood derived CD56+ cells; test: Transwell chemotaxis (migration) assay; assay type: cell-based, human
Method: Chemotaxis (“migration”) assay: Migration response (chemotaxis) of human NK cells was assayed by Transwell migration assay (Costar, Cambridge, Mass.; 6.5-mm diameter, 5-μm pore size). Briefly, 100 μL chemotaxis buffer (RPMI 1640, 1% FCS) containing 2×10^5 NK cells was added to the upper chamber, and 0.5 mL chemotaxis buffer with or without 250 ng/ml stromal-derived factor CXCL12 (“SDF-1”) (R&D Systems) was added to the bottom chamber. Cells migrating within 4 hours to the bottom chamber of the “transwell” were counted for 60 seconds using FACScalibur (Becton Dickinson Immunocytometry Systems).

[3] = test system: colo205 colorectal adenocarcinoma cell line; assay type: cell-based; details: 5 mM nicotinamide, all E:T ratios tested (1:1 to 10:1)
[4] = test system: peripheral blood CD56+ NK cells; test: CXCR4 and CD62L expression on NK cells co-cultured with irradiated mononuclear cells; assay type: cell-based, human; details: co-culture with irradiated mononuclear cells, nicotinamide 2.5 and 5 mM
From the text: NK cell cells from total mononuclear cell fraction, purified CD56+ or CD56+CD3− cells from total nuclear or mononuclear cells or from the fraction depleted from CD34+ or CD133+ cells, or CD3+ depleted, or CD3+/CD19+ depleted mononuclear cell fraction from PB, BM and CB can be cultured with irradiated stroma. For the preparation of irradiated stroma (feeder cells), mononuclear cells were irradiated with 3000 rad. After CD56 or CD56+CD3− selection or CD3 depletion the cells were counted and characterized by FACS analysis as described hereinabove. Cells were cultured as described hereinabove, with and without nicotinamide, with and without irradiated stroma at a concentration of irradiated cells of 20×10^5 cells/ml.
as §1, with “The cells were passed at a rate of up to 1000 cells/second, using a 488 nm or 661 nm argon laser beam as the light source for excitation.” left out

[5] = 0.5, 1, 2.5 and 5 mM nicotinamide

Which results are given for NC(=O)c1cccnc1 [nicotinamide]?
proliferation in culture of CD56+/CD3- NK cells [1, 5]: dose-dependent nicotinamide-induced enhancement of proliferation; proliferation in culture of CD56+/CD45+ cells [1, 5]: dose-dependent nicotinamide-induced enhancement of proliferation; CD3+ CD56- T cell growth ([1]; 0.5 to 5 mM nicotinamide, dose-dependent): inhibition; migration in response to SDF stimulus ([2]; cells cultured with 2.5 or 5 mM nicotinamide, 250 ng/ml SDF): greatly enhanced; motility in the absence of SDF stimulus ([2]; nicotinamide-cultured CD56+ cells, no SDF): enhanced motility; cytotoxic potential towards solid tumor cells [3]: increased killing potential; expression of surface marker CD62L [4]: marked increase; expression of surface marker CXCR4 [4]: marked increase
